Values quoted from earlier work as cited in patent US11065213B2, “Amantadine compositions and preparations thereof” (Adamas Pharma, LLC, priority 2017, dated 2021).
Read-outs that look alike come from different tables or passages of the source.

Test system: LID in PD patients
Details: IR formulation

NC12CC3CC(CC(C3)C1)C2 [amantadine]
reduction in LID (200 mg/day): approximately 25% | reduction of LID (300 mg/day): ~40% | reduction of LID (300 to 400 mg/day): ~60%
